Experiments:
[1] = molecular target: Serine/threonine-protein kinase N1 (Homo sapiens, UniProt Q16512); assay: Selectivity interaction (KinomeScan (DiscoverX)) EUB0000595a PKN1; settings: at 10 µM
[2] = molecular target: Phosphatidylinositol 4-phosphate 5-kinase type-1 gamma (Homo sapiens) (UniProt O60331); assay: Selectivity interaction (KinomeScan (DiscoverX)) EUB0000045b PIP5K1C
[3] = molecular target: T1, Serine/threonine-protein kinase BRSK2 (Homo sapiens) (UniProt Q8IWQ3); assay: Selectivity interaction (KinomeScan (DiscoverX)) EUB0001049a BRSK2; settings: at 1 µM
T1 sequence (whole entry): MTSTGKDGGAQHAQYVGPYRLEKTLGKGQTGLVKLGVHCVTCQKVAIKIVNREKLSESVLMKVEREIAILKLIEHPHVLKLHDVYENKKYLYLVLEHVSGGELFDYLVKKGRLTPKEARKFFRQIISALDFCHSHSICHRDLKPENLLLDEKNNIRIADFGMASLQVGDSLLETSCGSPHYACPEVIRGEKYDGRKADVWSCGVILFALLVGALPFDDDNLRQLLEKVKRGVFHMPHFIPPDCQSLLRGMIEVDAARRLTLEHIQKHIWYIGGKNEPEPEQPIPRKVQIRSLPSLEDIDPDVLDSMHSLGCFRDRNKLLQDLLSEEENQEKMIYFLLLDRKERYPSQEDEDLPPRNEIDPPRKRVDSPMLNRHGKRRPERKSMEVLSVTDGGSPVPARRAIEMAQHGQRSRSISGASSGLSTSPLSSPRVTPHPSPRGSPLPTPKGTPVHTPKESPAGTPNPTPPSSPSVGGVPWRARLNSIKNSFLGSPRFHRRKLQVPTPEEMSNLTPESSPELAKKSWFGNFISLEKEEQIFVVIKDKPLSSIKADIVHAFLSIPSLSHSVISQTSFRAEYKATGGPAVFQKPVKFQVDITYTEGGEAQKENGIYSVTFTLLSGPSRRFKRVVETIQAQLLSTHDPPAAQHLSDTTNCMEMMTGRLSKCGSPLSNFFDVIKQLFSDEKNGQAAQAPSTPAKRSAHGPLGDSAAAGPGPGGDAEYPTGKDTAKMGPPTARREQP

[4] = molecular target: Proto-oncogene tyrosine-protein kinase receptor Ret (Homo sapiens, UniProt P07949)
[5] = molecular target: cGMP-specific 3',5'-cyclic phosphodiesterase (Homo sapiens) (UniProt O76074); assay: Selectivity interaction (Eurofins safety panel) EUB0001564a PDE5A; settings: at 10 µM
[6] = molecular target: T2, Alpha-2C adrenergic receptor (Homo sapiens) (UniProt P18825); assay: Selectivity interaction (Panel of kinases, GPCRs, ion channels and transporters (enzymatic assay)) EUB0000223bCl ADRA2C
T2 sequence (whole entry): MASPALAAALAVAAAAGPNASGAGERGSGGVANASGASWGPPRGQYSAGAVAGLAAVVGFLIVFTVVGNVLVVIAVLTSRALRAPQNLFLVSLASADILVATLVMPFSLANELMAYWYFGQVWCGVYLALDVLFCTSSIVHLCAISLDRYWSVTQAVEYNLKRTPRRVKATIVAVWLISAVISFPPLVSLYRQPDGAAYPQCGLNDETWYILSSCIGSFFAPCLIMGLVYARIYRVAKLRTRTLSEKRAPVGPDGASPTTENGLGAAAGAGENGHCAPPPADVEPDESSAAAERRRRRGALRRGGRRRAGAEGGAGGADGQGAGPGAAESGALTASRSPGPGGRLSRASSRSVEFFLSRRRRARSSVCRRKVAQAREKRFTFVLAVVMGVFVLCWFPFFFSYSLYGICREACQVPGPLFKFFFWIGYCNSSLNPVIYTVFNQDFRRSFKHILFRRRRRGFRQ

[7] = molecular target: Proto-oncogene tyrosine-protein kinase Src (Homo sapiens, UniProt P12931); assay: Selectivity interaction (ActivX KiNativ screen (ex vivo kinase selectivity in human PBMCs)) EUB0001619a SRC; format: cell-based; settings: PBMC, at 1 µM
Sequence of Proto-oncogene tyrosine-protein kinase Src (P12931 2-536 limits assumed): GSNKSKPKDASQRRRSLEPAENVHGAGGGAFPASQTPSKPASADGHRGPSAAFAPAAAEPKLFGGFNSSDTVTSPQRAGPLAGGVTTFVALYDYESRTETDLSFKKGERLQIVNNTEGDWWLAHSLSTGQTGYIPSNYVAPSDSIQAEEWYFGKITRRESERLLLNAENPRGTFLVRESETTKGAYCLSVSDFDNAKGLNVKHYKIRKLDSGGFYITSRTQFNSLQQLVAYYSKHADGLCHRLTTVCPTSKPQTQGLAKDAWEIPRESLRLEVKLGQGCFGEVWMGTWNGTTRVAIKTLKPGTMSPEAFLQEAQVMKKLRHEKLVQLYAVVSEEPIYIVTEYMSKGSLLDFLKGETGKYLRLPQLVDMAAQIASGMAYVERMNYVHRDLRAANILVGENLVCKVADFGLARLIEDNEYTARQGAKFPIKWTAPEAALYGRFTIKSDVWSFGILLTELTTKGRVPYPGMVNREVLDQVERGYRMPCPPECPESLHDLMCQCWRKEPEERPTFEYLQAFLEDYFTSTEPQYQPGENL

[8] = tested on: Epidermal growth factor receptor (Homo sapiens), P00533 [UNDEFINED MUTATION]; assay: Selectivity interaction (KinomeScan (DiscoverX)) EUB0001619a EGFR; settings: at 1 µM
Sequence of Epidermal growth factor receptor (Homo sapiens), P00533 [UNDEFINED MUTATION] (P00533 whole entry, looked up, change not shown): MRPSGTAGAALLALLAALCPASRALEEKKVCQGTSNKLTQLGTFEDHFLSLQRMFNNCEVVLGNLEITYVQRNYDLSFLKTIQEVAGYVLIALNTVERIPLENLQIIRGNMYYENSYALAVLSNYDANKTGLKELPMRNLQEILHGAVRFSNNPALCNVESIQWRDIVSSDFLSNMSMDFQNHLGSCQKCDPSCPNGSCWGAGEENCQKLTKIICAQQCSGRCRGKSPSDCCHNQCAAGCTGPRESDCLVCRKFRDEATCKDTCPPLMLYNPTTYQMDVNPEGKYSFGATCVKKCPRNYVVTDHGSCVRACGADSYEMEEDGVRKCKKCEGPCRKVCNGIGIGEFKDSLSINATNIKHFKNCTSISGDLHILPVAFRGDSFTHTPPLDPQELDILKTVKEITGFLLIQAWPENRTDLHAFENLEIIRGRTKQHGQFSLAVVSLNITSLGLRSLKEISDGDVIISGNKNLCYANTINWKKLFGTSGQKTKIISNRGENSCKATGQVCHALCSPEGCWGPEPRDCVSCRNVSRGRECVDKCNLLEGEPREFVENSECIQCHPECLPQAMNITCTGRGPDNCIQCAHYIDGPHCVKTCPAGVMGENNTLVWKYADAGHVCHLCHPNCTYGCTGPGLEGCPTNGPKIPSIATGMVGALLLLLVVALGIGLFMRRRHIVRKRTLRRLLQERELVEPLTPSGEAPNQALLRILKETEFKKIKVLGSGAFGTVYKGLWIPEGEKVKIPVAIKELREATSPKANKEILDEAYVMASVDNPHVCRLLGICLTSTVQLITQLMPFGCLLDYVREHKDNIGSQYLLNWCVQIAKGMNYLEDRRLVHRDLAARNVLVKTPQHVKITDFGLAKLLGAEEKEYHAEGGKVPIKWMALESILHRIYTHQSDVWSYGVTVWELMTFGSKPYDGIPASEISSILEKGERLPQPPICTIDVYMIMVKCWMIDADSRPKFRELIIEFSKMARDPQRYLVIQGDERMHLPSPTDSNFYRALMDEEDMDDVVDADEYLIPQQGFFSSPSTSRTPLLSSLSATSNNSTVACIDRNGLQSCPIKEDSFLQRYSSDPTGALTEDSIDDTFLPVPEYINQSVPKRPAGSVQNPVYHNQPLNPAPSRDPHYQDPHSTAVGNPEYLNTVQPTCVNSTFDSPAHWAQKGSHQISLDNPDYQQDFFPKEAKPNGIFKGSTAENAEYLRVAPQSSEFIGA

[9] = molecular target: Serine/threonine-protein kinase Nek6 (Homo sapiens) (UniProt Q9HC98); assay: Selectivity interaction (Kinase panel (Invitrogen)) EUB0000639a NEK6; settings: at 200 nM
Sequence of Serine/threonine-protein kinase Nek6 (Homo sapiens) (Q9HC98 whole entry): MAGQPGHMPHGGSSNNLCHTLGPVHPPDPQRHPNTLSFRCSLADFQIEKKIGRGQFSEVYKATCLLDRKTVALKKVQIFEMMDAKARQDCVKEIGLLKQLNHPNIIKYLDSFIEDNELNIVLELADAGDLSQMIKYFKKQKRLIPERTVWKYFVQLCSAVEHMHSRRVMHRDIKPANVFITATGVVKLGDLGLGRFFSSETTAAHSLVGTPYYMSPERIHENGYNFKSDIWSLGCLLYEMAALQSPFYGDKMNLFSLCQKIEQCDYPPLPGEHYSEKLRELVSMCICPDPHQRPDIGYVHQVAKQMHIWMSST

[10] = molecular target: T3, Serine/threonine-protein kinase ULK1 (Homo sapiens) (UniProt O75385); assay: Selectivity interaction (KinomeScan (DiscoverX)) EUB0000655a ULK1; settings: at 10 µM
T3 sequence (whole entry): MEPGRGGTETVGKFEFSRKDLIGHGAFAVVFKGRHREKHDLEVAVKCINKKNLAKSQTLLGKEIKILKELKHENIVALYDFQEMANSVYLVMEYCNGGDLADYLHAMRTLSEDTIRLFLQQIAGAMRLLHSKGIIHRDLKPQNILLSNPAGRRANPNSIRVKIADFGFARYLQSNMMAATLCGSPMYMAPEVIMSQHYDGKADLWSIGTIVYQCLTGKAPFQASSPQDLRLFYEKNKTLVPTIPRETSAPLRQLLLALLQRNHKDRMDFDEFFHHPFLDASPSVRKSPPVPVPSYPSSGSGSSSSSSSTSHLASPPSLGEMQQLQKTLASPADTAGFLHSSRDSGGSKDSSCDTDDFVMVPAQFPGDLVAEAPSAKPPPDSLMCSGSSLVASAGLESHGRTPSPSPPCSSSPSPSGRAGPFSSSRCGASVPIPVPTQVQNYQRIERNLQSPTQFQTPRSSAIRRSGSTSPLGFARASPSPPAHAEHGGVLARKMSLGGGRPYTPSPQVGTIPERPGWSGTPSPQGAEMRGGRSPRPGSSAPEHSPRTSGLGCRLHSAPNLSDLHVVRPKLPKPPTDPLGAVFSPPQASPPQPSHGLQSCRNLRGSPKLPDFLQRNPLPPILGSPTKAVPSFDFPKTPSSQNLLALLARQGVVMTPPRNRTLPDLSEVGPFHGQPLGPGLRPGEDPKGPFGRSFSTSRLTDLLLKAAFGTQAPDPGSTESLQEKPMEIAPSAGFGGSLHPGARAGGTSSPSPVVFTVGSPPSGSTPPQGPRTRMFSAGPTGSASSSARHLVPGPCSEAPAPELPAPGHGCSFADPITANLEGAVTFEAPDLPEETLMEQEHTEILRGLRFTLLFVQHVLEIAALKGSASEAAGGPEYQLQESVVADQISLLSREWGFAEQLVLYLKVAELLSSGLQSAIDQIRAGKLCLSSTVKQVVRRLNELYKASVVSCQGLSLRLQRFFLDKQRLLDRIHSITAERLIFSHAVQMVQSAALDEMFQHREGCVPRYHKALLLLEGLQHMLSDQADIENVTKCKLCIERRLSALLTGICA

[11] = molecular target: Cyclin-dependent kinase 8 (Homo sapiens, UniProt P49336); assay: Selectivity interaction (KinomeScan (DiscoverX)) EUB0000655a CDK8; settings: at 10 µM
Sequence of Cyclin-dependent kinase 8 (P49336 whole entry): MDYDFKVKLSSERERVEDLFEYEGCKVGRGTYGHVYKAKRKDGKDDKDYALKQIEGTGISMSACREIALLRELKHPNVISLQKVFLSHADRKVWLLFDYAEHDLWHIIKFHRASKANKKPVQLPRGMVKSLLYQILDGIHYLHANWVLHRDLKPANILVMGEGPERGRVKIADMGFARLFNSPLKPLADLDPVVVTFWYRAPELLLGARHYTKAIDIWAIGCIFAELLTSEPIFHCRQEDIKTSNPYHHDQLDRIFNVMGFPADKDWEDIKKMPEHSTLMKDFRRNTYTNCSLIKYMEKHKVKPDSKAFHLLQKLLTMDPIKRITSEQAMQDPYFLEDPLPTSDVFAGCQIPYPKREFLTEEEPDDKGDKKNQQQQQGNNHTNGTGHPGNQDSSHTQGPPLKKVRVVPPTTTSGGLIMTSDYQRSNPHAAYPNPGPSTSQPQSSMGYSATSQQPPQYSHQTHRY

[12] = molecular target: Serine/threonine-protein kinase 32B (Homo sapiens) (UniProt Q9NY57); settings: at 10 µM
Sequence of Serine/threonine-protein kinase 32B (Homo sapiens) (Q9NY57 whole entry): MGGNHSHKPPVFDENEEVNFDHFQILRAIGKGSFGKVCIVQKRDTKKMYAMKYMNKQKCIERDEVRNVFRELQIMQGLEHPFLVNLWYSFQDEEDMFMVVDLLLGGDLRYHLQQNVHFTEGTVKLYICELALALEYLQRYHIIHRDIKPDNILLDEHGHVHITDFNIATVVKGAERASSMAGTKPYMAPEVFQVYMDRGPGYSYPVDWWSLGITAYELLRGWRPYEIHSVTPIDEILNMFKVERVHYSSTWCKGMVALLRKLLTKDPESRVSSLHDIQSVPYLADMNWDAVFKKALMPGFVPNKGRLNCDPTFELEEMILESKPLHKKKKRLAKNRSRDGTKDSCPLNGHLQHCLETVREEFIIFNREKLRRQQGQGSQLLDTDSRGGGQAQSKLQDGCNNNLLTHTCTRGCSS

Sequence of Phosphatidylinositol 4-phosphate 5-kinase type-1 gamma (Homo sapiens) (O60331 whole entry): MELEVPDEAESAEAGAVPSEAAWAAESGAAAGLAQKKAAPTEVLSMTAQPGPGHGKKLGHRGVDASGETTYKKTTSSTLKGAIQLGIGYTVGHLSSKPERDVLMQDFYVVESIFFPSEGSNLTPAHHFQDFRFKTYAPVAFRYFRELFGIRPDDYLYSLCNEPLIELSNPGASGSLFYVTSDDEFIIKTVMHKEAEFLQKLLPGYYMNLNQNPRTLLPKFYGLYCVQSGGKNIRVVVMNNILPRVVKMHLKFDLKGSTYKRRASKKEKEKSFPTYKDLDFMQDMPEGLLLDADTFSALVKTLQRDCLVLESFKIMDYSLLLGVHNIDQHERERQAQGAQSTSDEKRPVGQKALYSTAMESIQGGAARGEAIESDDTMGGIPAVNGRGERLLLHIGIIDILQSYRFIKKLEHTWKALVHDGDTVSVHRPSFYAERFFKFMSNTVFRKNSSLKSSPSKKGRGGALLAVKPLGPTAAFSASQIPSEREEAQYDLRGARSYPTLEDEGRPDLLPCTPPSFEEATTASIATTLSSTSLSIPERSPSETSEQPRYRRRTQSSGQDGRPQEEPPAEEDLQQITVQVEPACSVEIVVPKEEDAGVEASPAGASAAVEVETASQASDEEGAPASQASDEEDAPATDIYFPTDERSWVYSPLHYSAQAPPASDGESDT
Sequence of Serine/threonine-protein kinase N1 (Q16512 2-942 limits assumed): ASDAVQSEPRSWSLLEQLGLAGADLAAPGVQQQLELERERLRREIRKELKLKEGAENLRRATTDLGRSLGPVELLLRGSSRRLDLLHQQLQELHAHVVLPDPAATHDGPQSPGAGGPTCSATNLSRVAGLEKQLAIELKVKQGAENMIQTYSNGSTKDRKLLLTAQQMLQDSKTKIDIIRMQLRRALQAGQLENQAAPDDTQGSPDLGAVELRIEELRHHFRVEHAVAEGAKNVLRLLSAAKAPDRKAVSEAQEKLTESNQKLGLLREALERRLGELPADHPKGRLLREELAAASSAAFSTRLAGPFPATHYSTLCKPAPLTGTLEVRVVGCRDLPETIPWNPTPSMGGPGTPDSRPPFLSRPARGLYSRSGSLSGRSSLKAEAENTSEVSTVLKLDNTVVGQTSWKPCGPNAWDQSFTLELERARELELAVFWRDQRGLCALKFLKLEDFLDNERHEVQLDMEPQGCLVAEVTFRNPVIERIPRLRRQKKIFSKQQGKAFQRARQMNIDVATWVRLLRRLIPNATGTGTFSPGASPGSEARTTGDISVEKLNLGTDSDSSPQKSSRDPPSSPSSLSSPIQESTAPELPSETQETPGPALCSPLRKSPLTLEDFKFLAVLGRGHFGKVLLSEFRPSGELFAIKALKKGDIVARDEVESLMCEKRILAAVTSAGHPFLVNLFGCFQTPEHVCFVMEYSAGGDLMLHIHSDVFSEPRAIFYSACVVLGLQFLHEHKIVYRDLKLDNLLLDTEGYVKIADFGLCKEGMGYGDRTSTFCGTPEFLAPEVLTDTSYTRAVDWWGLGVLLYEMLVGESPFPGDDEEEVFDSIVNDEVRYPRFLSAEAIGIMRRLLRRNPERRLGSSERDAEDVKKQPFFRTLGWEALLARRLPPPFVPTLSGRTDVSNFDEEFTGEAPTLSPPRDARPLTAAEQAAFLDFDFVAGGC

Molecule `COCC(=O)NC/C=C/c1ccc2ncnc(Nc3ccc(Oc4ccc(C)nc4)c(C)c3)c2c1` [CP-724714] has a % of control [1] of 100%.

In the case of `C=CC(=O)Nc1cc(-n2c(=O)ccc3cnc4ccc(-c5ccc(NS(C)(=O)=O)cc5)cc4c32)ccc1C`, the % of control ([2]; at 1 µM) is reported as 89% and the % of control ([2]; at 10 µM) is reported as 29%.

For `COc1cc(Nc2nc(C)cc(-c3cnn4nc(OC)ccc34)n2)cc(C(F)(F)F)c1`, the % of control [3] was 94%.

With `CCc1cccc(CC)c1NC(=O)c1nn(C)c2c1CCc1cnc(Nc3ccc(C(=O)NC4CCN(C)CC4)cc3OC(F)(F)F)nc1-2` the IC50 [4] was greater than 10 µM.

In the case of `CC[C@@H](Nc1c(C#N)c(-c2ccc(-c3cccc(C)c3F)cc2)nc2cnccc12)C(=O)O` [BAY-091], the % of inhibition [5] is reported as 62%.

For `COc1cc(C(=O)N2CC[C@@H](O)[C@@H](N)C2)cc2nc(-c3cc4ccccc4n3CC3CC3)n(C)c12`, the pXC50 [6] was less than 4.5 M.

Molecule `N#Cc1cccc(-c2c[nH]c3ncnc(N4CCOCC4)c23)c1` has a % of inhibition [7] of -9% and a % of control [8] of 82%.

Work on `CC[C@@H]1[C@H](F)C(=O)N[C@@H]1COc1nccc2cc(C(N)=O)c(OC)cc12` [ZIMLOVISERTIB] yielded a % of inhibition [9] of 6.81%.

In the case of `CN(C)CCOc1ccc(-c2nc(-c3ccncc3)c(-c3ccc4c(c3)CC/C4=N\O)[nH]2)cc1`, the % of control [10] is reported as 98% and the % of control [11] is reported as 83%.

Molecule `CCN(CC)CCCCNc1ncc2cc(-c3cc(OC)cc(OC)c3)c(NC(=O)NC(C)(C)C)nc2n1` has a % of control [12] of 100%.

Source: ChEMBL document CHEMBL5465560, “Selectivity Literature for EUbOPEN Chemogenomic Library” (2024)
